Eight compounds from patent publication US6172066A, “Dihydropyrimidines and uses thereof” (Synaptic Pharmaceutical Corporation, priority 1997, dated 2001) can be followed below.

Structures can show the parent of a compound that is named as a salt.

In the first experiment the target is T1, α1A Human Adrenergic Receptor (Homo sapiens, UniProt P35348).
T1 construct: The entire coding region of α1A (1401 bp); expressed in transfected cells
T1 sequence (P35348 1-466): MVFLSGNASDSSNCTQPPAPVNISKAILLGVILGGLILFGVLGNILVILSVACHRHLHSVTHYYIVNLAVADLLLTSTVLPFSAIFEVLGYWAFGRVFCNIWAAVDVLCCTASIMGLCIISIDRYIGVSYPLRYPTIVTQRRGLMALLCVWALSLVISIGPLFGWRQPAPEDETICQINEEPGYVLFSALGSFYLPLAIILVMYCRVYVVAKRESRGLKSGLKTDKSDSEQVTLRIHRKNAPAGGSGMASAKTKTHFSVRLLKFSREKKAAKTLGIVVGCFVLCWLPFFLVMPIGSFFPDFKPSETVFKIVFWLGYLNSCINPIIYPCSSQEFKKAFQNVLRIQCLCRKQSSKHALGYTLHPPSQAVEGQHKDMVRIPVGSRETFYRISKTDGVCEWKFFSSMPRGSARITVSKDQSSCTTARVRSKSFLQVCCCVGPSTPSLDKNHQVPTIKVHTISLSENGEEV
The experiment can be described thus: Radioligand binding, [3H]prazosin displacement, cloned human α1A receptor (LM(tk-) cell membranes). The settings on record: [3H]prazosin 0.5 nM, 37° C., 20 min. On the procedure: The activity of compounds at the different human receptors was determined in vitro using cultured cell lines that selectively express the receptor of interest. These cell lines were prepared by transfecting the cloned cDNA or cloned genomic DNA or constructs containing both genomic DNA and cDNA encoding the human α-adrenergic receptors as follows:
The entire coding region of α1A (1401 bp), including 400 base pairs of 5' untranslated sequence (5' UT) and 200 bp of 3' untranslated sequence (3' UT), was cloned into the KpnI site of the polylinker-modifiedpCEXV-3-derived eukaryotic expression vector, EXJ.RH. The construct involved ligating three partial overlapping fragments: a 5' 0.6kb HincII genomic clone, a central 1.8 EcoRI hippocampal cDNA clone, and a 3' 0.6Kb PstI genomic clone. The hippocampal cDNA fragment overlaps with the 5' and 3' genomic clones so that the HincII and PstI sites at the 5' and 3' ends of the cDNA clone, respectively, were utilized for ligation. This full-length clone was cloned into the KpnI site of the expression vector, using the 5' and 3' KpnI sites of the fragment, derived from vector (i.e., pBluescript) and 3'-untranslated sequences, respectively. Stable cell lines were selected as described above. The stable cell line expressing the human α1A receptor used herein was designated L-α1C (old nomenclature) and was deposited with the American Type Culture Collection, 12301 Parklawn Drive, Rockville, Md. 20852, U.S.A. under the provisions of the Budapest Treaty for the International Recognition of the Deposit of Microorganisms for the Purposes of Patent Procedure. The cell line expressing the human α1A receptor was accorded Accession No. CRL 11140, on Sep. 25, 1992.
Transfected cells from culture flasks were scraped into 5 ml of 5 mM Tris-HCl, 5 mM EDTA, pH 7.5, and lysed by sonication. The cell lysates were centrifuged at 1000 rpm for 5 min at 4° C., and the supernatant was centrifuged at 30,000×g for 20 min at 4° C. The pellet was suspended in 50 mM Tris-HCl, 1 mM MgCl2, and 0.1% ascorbic acid at pH 7.5. Binding of the α1 antagonist [^3 H]prazosin (0.5 nM, specific activity 76.2 Ci/mmol) to membrane preparations of LM(tk-) cells was done in a final volume of 0.25 ml and incubated at 37° C. for 20 min. Nonspecific binding was determined in the presence of 10 μM phentolamine. The reaction was stopped by filtration through GF/B filters using a cell harvester. Inhibition experiments, routinely consisting of 7 concentrations of the tested compounds, were analyzed using a non-linear regression curve-fitting computer program to obtain Ki values.
Turning to “cis-6-(3,4,5-Trifluorophenyl)-1-{N-[2-(4-cyano-4-phenyl-cyclohexylamino)ethyl]}-carboxamido-5-acetyl-4-methoxymethyl-2-oxo-1,2,3,6-tetrahydropyrimidine hydrochloride [Example 2]”, the “hα1A pKi” value is given as 9.51.

The same experiment, now with this note: [3H]prazosin 0.5 nM, 37° C., 20 min, read-out: hα1A pKi (converted).
Regarding `CCC1=C(C(N)=O)C(c2ccc(F)cc2F)N(C(=O)NCCN[C@H]2CC[C@](C#N)(c3ccccc3)CC2)C(=O)N1` (single isomer, unassigned; (+)) [Example 3, (+)-cis-5-Carboxamido-6-(2,4-difluorophenyl)-1-{N-[2-(4-cyano-4-phenyl-cyclohexylamino)ethyl]}carboxamido-4-ethyl-2-oxo-1,2,3,6-tetrahydropyrimidine hydrochloride], the Ki is 0.49 nM.

In the case of `COCC1=C(C(=O)OC)C(c2ccc(F)c(F)c2)N(C(=O)NCCN[C@H]2CC[C@](C#N)(c3ccccc3)CC2)C(=O)N1` (single isomer, unassigned; (+)) [Example 4, (+)-cis-6-(3,4-Difluorophenyl)-1-{N-[2-(4-cyano-4-phenyl-cyclohexylamino)ethyl]}carboxamido-5-methoxycarbonyl-4-methoxymethyl-2-oxo-1,2,3,6-tetrahydropyrimidine hydrochloride], the Ki is 0.135 nM. Take `COCC1=C(C(=O)OC)C(c2ccc(F)c(F)c2)N(C(=O)NCCN[C@H]2CC[C@@](C#N)(c3ccccc3)CC2)C(=O)N1` (single isomer, unassigned; (+)) [Example 5, (+)-trans-6-(3,4-Difluorophenyl)-1-{N-[2-(4-cyano-4-phenyl-cyclohexylamino)ethyl]}carboxamido-5-methoxycarbonyl-4-methoxymethyl-2-oxo-1,2,3,6-tetrahydropyrimidine hydrochloride]: the Ki was 0.126 nM. On the same count and under the same terms, then `COCC1=C(C(=O)OC)C(c2ccc(F)c(F)c2)N(C(=O)NCCN[C@H]2CC[C@H](c3ccccn3)CC2)C(=O)N1` (single isomer, unassigned; (+)) [Example 7, (+)-trans-6-(3,4-Difluorophenyl)-1-{N-[2-(4-(2-pyridyl)-cyclohexylamino)ethyl]}carboxamido-5-methoxycarbonyl-4-methoxymethyl-2-oxo-1,2,3,6-tetrahydropyrimidine hydrochloride], with 4.47 nM; and `COCC1=C(C(=O)OC)C(c2ccc(F)c(F)c2)N(C(=O)NCCN[C@H]2CC[C@](C(=O)OC)(c3ccccc3)CC2)C(=O)N1` (single isomer, unassigned; (+)) [Example 11, (+)-cis-6-(3,4-Difluorophenyl)-1-{N-[2-(4-methoxycarbonyl-4-phenyl-cyclohexylamino)ethyl]}carboxamido-5-methoxycarbonyl-4-methoxymethyl-2-oxo-1,2,3,6-tetrahydropyrimidine hydrochloride], with 0.219 nM; and `COC(=O)C1=C(C)NC(=O)N(C(=O)NCCN[C@H]2CC[C@](C#N)(c3ccccc3F)CC2)C1c1ccc(F)c(F)c1` (single isomer, unassigned; (+)) [Example 13, (+)-cis-6-(3,4-Difluorophenyl)-1-{N-[2-(4-cyano-4-(2-fluorophenyl)-cyclohexylamino)ethyl]}carboxamido-5-methoxycarbonyl-4-methyl-2-oxo-1,2,3,6-tetrahydropyrimidine hydrochloride], with 0.102 nM. On the same count and under the same terms, the value for `COCC1=C(C(=O)OC)C(c2ccc(F)c(F)c2)N(C(=O)NCCN[C@H]2CC[C@](C#N)(c3ccccn3)CC2)C(=O)N1` (single isomer, unassigned; (+)) [Example 14, (+)-cis-6-(3,4-Difluorophenyl)-1-{N-[2-(4-cyano-4-(2-pyridyl)-cyclohexylamino)ethyl]}carboxamido-5-methoxycarbonyl-4-methoxymethyl-2-oxo-1,2,3,6-tetrahydropyrimidine hydrochloride] was 0.933 nM.
